In assay [1] the target is T1, phosphorylated ERBB2 (pERBB2) (Homo sapiens, UniProt P04626).
T1 construct: endogenous in cells; host or cells: BT-474
The assay can be described thus: Detection of phosphorylated ERBB2 (pERBB2) by ELISA in BT-474 cells. Format: cell-based. As to conditions: four hour incubation. The procedure:
BT-474 cells were seeded into a 96-well at 2.0*10^4 cells/100 μl/well. Compounds were dissolved and serially diluted in DMSO. The compounds were then were added, mixed, and incubated for four hours at 37° C., 5% CO2. Compounds were added using four-fold dilutions at final concentrations ranging from 10 μM to 0.01 nM. Following the four hour incubation with compounds, cell lysates were prepared. Plates were centrifuged for 5 μmin at 3000 RPM, and supernatant was removed from each well. Cells were washed 3 times by resuspension in 150 μl PBS, followed by centrifugation and removal of the supernatant, as above. 100 μl of cell lysis buffer (Boston BioProducts, cat #BP-115D) supplied with 1× complete ULTRA cocktail inhibitor (Thermo ScientificTM, cat #78443) was then added to the washed cells. Cells were incubated with lysis buffer for 1 hour at 4° C., and then stored at -80° C. Enzyme-linked immunosorbent assays (ELISA) were performed to measure phosphorylated ERBB2 levels. […] The next day, plates were washed with PBS+0.05% Tween20 (PBST). 150 μl of 5% BSA blocking solution was added for 1 hour at room temperature, with shaking. Plates were washed with PBST. Cell lysates were thawed and 100 μl of lysate was added to the ELISA plate. The plates were incubated for 2 hours at room temperature, with shaking. ELISA plates were then washed with PBST and 100 μl of an HRP-labeled detection antibody that binds phosphorylated tyrosine (R&D Systems, cat #841913) was added to each well. Plates were incubated for 1 hour at room temperature, with shaking. Plates were then washed with PBST, and 100 μl TMB substrate solution (R&D Systems, cat #DY999) was added. Plate were incubated in the dark for 20 minutes at room temperature. 50 μl of Stop solution (R&D Systems, cat #DY994) (50 μl) was added to each well and mixed. Optical density at 450 nm was read on an EnSpire plate reader (Perkin Elmer). The remaining kinase activity by calculated using the following formula: % Relative activity=100×([…]). The low and high control values (“LC” and “HC”) were generated from lysate from wells without cells or with cells treated with 0.1% DMSO, respectively.

In assay [2] the target is T2, phosphorylated EGFR (pEGFR) (Homo sapiens, UniProt P00533).
T2 construct: performed to measure phosphorylated EGFR levels using A431 cells (10% FBS); endogenous in cells; host or cells: A431
T2 sequence (P00533 25-1210): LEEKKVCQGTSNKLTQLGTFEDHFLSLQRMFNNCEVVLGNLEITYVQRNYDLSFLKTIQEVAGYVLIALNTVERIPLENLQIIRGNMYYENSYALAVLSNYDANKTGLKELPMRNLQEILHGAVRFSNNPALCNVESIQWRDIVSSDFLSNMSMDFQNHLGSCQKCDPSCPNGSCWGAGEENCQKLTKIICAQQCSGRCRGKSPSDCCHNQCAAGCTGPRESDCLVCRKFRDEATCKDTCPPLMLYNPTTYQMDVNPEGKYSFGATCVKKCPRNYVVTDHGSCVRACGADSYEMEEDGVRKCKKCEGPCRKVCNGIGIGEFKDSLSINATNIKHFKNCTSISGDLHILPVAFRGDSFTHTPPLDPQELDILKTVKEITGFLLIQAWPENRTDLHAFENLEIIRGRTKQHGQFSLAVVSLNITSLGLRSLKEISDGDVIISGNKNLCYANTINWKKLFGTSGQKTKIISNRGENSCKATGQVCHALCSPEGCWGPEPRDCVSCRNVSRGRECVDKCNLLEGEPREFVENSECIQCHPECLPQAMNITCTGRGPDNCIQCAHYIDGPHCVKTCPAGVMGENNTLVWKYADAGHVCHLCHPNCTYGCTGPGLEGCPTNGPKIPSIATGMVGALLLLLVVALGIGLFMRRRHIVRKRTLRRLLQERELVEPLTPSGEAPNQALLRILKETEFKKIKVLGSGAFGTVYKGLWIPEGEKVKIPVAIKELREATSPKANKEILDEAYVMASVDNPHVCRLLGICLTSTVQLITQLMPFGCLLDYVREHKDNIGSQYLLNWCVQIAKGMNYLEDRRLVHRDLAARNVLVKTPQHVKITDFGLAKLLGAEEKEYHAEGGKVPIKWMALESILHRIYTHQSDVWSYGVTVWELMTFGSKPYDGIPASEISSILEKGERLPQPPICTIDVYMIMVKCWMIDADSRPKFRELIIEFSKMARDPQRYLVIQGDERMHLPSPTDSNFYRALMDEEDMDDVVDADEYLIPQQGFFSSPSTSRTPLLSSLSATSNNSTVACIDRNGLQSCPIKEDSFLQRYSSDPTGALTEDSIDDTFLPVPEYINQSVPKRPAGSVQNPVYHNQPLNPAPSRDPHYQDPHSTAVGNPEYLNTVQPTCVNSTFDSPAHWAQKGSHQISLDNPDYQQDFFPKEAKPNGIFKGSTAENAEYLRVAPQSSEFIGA
The assay can be described thus: Detection of phosphorylated EGFR (pEGFR) by AlphaLISA in EGF-stimulated A431 cells. Format: cell-based. As to conditions: A431 cells (10% FBS), 4 hours incubation, EGF 30 ng/mL for 10 minutes. As to the method:
Enzyme-linked immunosorbent assays (ELISA) were performed to measure phosphorylated EGFR levels using A431 cells (10% FBS). A431 (1.0*10^4 cells/40 μl/well) cells were seeded in 384 well. Compounds were dissolved in DMSO, serially diluted in DMSO and then were added, mixed, and incubated for 4 hours at 37° C., 5% C02. Following the 4-hours incubation, cells were stimulated for 10 minutes with EGF (Invitrogen, cat #PHG0311) at a final concentration of 30 ng/mL in the incubator. The media was aspirated and cells were lysed in 10 μL lysis buffer with protease and phosphatase inhibitors (PerkinElmer, cat #ALSU-PEGFR-A50K). The plates were placed on a shaker for 5 μminutes and then incubated for 30 min at 4° C. for complete lysis. The lysate was transferred to an Optiplate (Perkin Elmer, cat #6007290).
Acceptor mix (PerkinElmer, cat #ALSU-PEGFR-A50K) was prepared just before use and 5 μL was dispensed to all the wells, followed by a 1.5-2 h incubation at room temperature in dark. The donor mix (PerkinElmer, cat #ALSU-PEGFR-A50K) was prepared under low light conditions prior to use and 5 μl of donor mix was added to all the wells under subdued lighting or green filters. The plates were placed on a shaker for 5 μmin, sealed, and incubated overnight at room temperature in dark. Plates were read on the Envision (PerkinElmer) using standard AlphaLISA settings.
The percentage of inhibition on EGFR phosphorylation was calculated following equation: % Inhibition=100×(LumHC−LumSample)/(LumHC−LumLC). The low and high controls (LC/HC) are generated from lysate from wells with cells treated with DMSO or […] Staurosporine (BioAustralis, cat #BIA-S1086), […]. IC50 values were calculated by fitting the Curve using XLfit (v5.3.1.3), equation 201: Y=Bottom+(Top−Bottom)/(1+10^((Log IC50−X)*HillSlope)).
In general terms: Bead proximity is the source of the signal in Alpha formats.

T1 sequence (P04626 23-1255): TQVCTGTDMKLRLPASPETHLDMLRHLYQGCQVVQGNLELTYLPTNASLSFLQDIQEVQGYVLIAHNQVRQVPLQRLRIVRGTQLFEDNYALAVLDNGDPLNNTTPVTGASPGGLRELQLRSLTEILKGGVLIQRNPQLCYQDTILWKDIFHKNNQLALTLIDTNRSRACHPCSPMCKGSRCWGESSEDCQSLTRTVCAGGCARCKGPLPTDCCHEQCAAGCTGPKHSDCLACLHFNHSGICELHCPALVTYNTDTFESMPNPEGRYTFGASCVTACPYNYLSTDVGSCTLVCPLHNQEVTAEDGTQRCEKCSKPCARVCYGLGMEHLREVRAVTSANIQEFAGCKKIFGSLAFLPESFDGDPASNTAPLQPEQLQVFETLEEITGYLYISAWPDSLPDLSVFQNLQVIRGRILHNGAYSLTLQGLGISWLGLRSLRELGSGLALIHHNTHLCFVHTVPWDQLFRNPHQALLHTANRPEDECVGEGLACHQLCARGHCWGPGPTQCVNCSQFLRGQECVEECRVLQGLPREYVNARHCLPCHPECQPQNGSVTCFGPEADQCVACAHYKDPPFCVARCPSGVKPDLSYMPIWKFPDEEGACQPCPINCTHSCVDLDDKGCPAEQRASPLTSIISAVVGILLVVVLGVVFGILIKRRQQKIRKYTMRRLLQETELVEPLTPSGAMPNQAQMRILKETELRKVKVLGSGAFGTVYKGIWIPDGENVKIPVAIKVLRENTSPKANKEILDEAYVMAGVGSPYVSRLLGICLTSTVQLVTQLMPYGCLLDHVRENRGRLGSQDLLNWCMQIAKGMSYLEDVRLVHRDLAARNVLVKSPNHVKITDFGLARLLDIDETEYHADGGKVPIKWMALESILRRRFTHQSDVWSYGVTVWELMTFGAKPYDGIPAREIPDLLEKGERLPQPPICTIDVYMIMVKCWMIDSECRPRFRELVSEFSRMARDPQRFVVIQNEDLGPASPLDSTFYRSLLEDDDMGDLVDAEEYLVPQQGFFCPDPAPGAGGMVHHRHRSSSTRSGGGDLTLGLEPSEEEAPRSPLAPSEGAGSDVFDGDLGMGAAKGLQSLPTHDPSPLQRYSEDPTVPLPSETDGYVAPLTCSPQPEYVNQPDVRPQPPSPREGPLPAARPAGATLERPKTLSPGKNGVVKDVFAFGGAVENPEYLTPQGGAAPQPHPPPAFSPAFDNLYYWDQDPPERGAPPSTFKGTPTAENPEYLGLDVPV

What is called IC50 is the concentration that gives 50% inhibition. Read a low IC50 as greater potency in that assay. Turning to `Cc1cc(Nc2ncnc3cc4c(cc23)N2CCNC[C@@H]2CO4)ccc1Oc1ccc2c(c1)ncn2C` [Compound 63, (R)—N-(3-methyl-4-((1-methyl-1H-benzo[d]imidazol-5-yl)oxy)phenyl)-1,2,3,4,4a,5-hexahydropyrazino[1′,2′:4,5][1,4]oxazino[3,2-g]quinazolin-11-amine], the figures for the half-inhibitory concentration (IC50) in assay [1] and in assay [2] were 153 nM and > 10000 nM, respectively.

In the case of `Cc1cc(Nc2ncnc3cc4c(cc23)N2CCN(C)C[C@@H]2CO4)ccc1Oc1ccc2c(c1)ncn2C` [Compound 64, (R)-3-methyl-N-(3-methyl-4-((1-methyl-1H-benzo[d]imidazol-5-yl)oxy)phenyl)-1,2,3,4,4a,5-hexahydropyrazino[1′,2′:4,5][1,4]oxazino[3,2-g]quinazolin-11-amine], the IC50 in assay [1] is 223 nM; in assay [2], > 10000 nM.

For the molecule `Cc1cc(Nc2ncnc3cnc4c(c23)OC[C@H]2COCCN42)ccc1Oc1ccn2ncnc2c1` [Compound 106, (R)—N-(4-([1,2,4]triazolo[1,5-a]pyridin-7-yloxy)-3-methylphenyl)-6a,7,9,10-tetrahydro-6H-[1,4]oxazino[4,3-d]pyrimido[5′,4′:4,5]pyrido[3,2-b][1,4]oxazin-4-amine], the values for the IC50 in assay [1] and in assay [2] were 37.1 nM and > 10000 nM, respectively.

In the case of `Cc1c(Oc2ccn3ncnc3c2)ccc(Nc2ncnc3cc4c(nc23)N2CCN(C)C[C@H]2CO4)c1F` [Compound 74, (S)—N-(4-([1,2,4]triazolo[1,5-a]pyridin-7-yloxy)-2-fluoro-3-methylphenyl)-3-methyl-1,2,3,4,4a,5-hexahydropyrazino[1,2-d]pyrimido[4′,5′:5,6]pyrido[3,2-b][1,4]oxazin-11-amine], the half-maximal inhibitory concentration (IC50) in assay [1] was 98.1 nM; in assay [2], > 10000 nM.

As for `Cc1cc(Nc2ncnc3cc4c(cc23)N2CCNC[C@H]2CO4)ccc1Oc1ccn2ncnc2c1` [Compound 57, (S)—N-(4-([1,2,4]triazolo[1,5-a]pyridin-7-yloxy)-3-methylphenyl)-1,2,3,4,4a,5-hexahydropyrazino[1′,2′:4,5][1,4]oxazino[3,2-g]quinazolin-11-amine], the IC50 is 26.7 nM in assay [1] and > 10000 nM in assay [2].

In the case of `Cc1cc(Nc2ncnc3cc4c(nc23)N2CCOC[C@H]2CO4)ccc1Oc1ccn2ncnc2c1` [Compound 67, (S)—N-(4-([1,2,4]triazolo[1,5-a]pyridin-7-yloxy)-3-methylphenyl)-1,2,4a,5-tetrahydro-4H-[1,4]oxazino[4,3-d]pyrimido[4′,5′:5,6]pyrido[3,2-b][1,4]oxazin-11-amine], the 50% inhibitory concentration (IC50) in assay [1] is 46.4 nM; in assay [2] it was > 10000 nM.

For the molecule `Cc1cc(Nc2ncnc3cc4c(nc23)N2CCC[C@H]2CO4)ccc1Oc1ccn2ncnc2c1` [Compound 69, (S)—N-(4-([1,2,4]triazolo[1,5-a]pyridin-7-yloxy)-3-methylphenyl)-2,3,3a,4-tetrahydro-1H-pyrimido[4′,5′:5,6]pyrido[3,2-b]pyrrolo[1,2-d][1,4]oxazin-10-amine], the IC50 in assay [1] was 99.8 nM; in assay [2] it was > 10000 nM.

As to `Cc1cc(Nc2ncnc3ccc4c(c23)OC[C@@H]2CN(C)CCN42)ccc1Oc1ccc2c(c1)ncn2C` [Compound 48, (S)-8-methyl-N-(3-methyl-4-((1-methyl-1H-benzo[d]imidazol-5-yl)oxy)phenyl)-6,6a,7,8,9,10-hexahydropyrazino[1′,2′:4,5][1,4]oxazino[2,3-f]quinazolin-4-amine], the figures for the IC50 in assay [1] and in assay [2] were 146 nM and > 10000 nM, respectively.

For `Cc1cc(Nc2ncnc3ccc4c(c23)OC[C@H]2CNCCN42)ccc1Oc1ccn2ncnc2c1` [Compound 41, (R)—N-(4-([1,2,4]triazolo[1,5-a]pyridin-7-yloxy)-3-methylphenyl)-6,6a,7,8,9,10-hexahydropyrazino[1′,2′:4,5][1,4]oxazino[2,3-f]quinazolin-4-amine diformic acid], the IC50 in assay [1] is 57.7 nM; in assay [2], > 10000 nM.

For the molecule `Cc1cc(Nc2ncnc3ccc4c(c23)OC[C@@H]2CN4CCN2C)ccc1Oc1ccc2c(c1)ncn2C` [Compound 54, (3S)-4-methyl-N-(3-methyl-4-((1-methyl-1H-benzo[d]imidazol-5-yl)oxy)phenyl)-3,4,5,6-tetrahydro-2H-3,7-methano[1,4,7]oxadiazonino[2,3-f]quinazolin-13-amine], the concentration for half-maximal inhibition (IC50) in assay [1] was 82.1 nM; in assay [2], > 10000 nM.

`Cc1cc(Nc2ncnc3ccc4c(c23)OC[C@H]2CNCCN42)ccc1Oc1ccc2c(c1)ncn2C` [Compound 45, (R)—N-(3-methyl-4-((1-methyl-1H-benzo[d]imidazol-5-yl)oxy)phenyl)-6,6a,7,8,9,10-hexahydropyrazino[1′,2′:4,5][1,4]oxazino[2,3-f]quinazolin-4-amine]: the figures for the IC50 in assay [1] and in assay [2] were 54 nM and > 10000 nM, respectively.

Take `Cc1cc(Nc2ncnc3cc4c(c(F)c23)N2CCOC[C@H]2CO4)ccc1Oc1ccn2ncnc2c1` [Compound 105, (S)—N-(4-([1,2,4]triazolo[1,5-a]pyridin-7-yloxy)-3-methylphenyl)-12-fluoro-1,2,4a,5-tetrahydro-4H-[1,4]oxazino[4′,3′:4,5][1,4]oxazino[3,2-g]quinazolin-11-amine]: the IC50 in assay [1] is 225 nM; in assay [2], > 10000 nM.

For `Cc1cc(Nc2ncnc3cc4c(nc23)N2CCCC[C@H]2CO4)ccc1Oc1ccn2ncnc2c1` [Compound 68, (S)—N-(4-([1,2,4]triazolo[1,5-a]pyridin-7-yloxy)-3-methylphenyl)-1,2,3,4,4a,5-hexahydropyrido[1,2-d]pyrimido[4′,5′:5,6]pyrido[3,2-b][1,4]oxazin-11-amine], the 50% inhibitory concentration (IC50) in assay [1] was 55.5 nM; in assay [2] it was > 10000 nM.

As for `Cc1cc(Nc2ncnc3cc4c(cc23)N2CCN(C)C[C@@H]2CO4)ccc1Oc1ccn2ncnc2c1` [Compound 60, (R)—N-(4-([1,2,4]triazolo[1,5-a]pyridin-7-yloxy)-3-methylphenyl)-3-methyl-1,2,3,4,4a,5-hexahydropyrazino[1′,2′:4,5][1,4]oxazino[3,2-g]quinazolin-11-amine], the IC50 in assay [1] was 97.2 nM; in assay [2] it was > 10000 nM.

As for `Cc1c(Oc2ccn3ncnc3c2)ccc(Nc2ncnc3ccc4c(c23)OC[C@H]2COCCN42)c1F` [Compound 99, (R)—N-(4-([1,2,4]triazolo[1,5-a]pyridin-7-yloxy)-2-fluoro-3-methylphenyl)-6a,7,9,10-tetrahydro-6H-[1,4]oxazino[4′,3′:4,5][1,4]oxazino[2,3-f]quinazolin-4-amine], the IC50 is 211 nM in assay [1] and > 10000 nM in assay [2].

As for `Cc1cc(Nc2ncnc3ccc4c(c23)OC[C@H]2CCCCN42)ccc1Oc1ccn2ncnc2c1` [Compound 86, (R)—N-(4-([1,2,4]triazolo[1,5-a]pyridin-7-yloxy)-3-methylphenyl)-6,6a,7,8,9,10-hexahydropyrido[1′,2′:4,5][1,4]oxazino[2,3-f]quinazolin-4-amine], the half-inhibitory concentration (IC50) in assay [1] is 40.7 nM; in assay [2] it was > 10000 nM.

With `Cc1cc(Nc2ncnc3ccc4c(c23)OC[C@@H]2CNCCN42)ccc1Oc1ccc2c(c1)ncn2C` [Compound 47, (S)—N-(3-methyl-4-((1-methyl-1H-benzo[d]imidazol-5-yl)oxy)phenyl)-6,6a,7,8,9,10-hexahydropyrazino[1′,2′:4,5][1,4]oxazino[2,3-f]quinazolin-4-amine], the 50% inhibitory concentration (IC50) in assay [1] was 91.2 nM; in assay [2] it was > 10000 nM.

(Values after US20260078135A1, “POLYCYCLIC QUINAZOLINES FOR INHIBITION OF ERBB2” (Enliven Inc., priority 2022, published 2026).)
